We go through 23 compounds from PubChem BioAssay AID330 (DTP/NCI, 2004).

“And” between values parts separate entries of the source, which are not always exact repeats. Equal values may be shown once. Toxic doses and inconclusive results are not listed. Peptide text beside a SMILES is read from it. * marks the point of attachment. Boc = CC(C)(C)OC(=O)*; NHNH2 = NN*

The subject of the test is P388 leukemia ip, CD2F1 mice, survival T/C. As to the kind of experiment: NCI In Vivo Anticancer Drug Screen. Data for tumor model P388 Leukemia (intraperitoneal) in CD2F1 (CDF1) mice. Conditions: endpoint: median survival time, higher = longer survival. The procedure, abridged: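 Mice carrying the transplanted tumor received test compound or vehicle. Survival was recorded in each group, and the value is the treated-group measurement divided by that of the vehicle-treated control group.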

Where [1] appears, read: dose: 50.0 mg/kg/injection, schedule: Q01DX009 (ip), vehicle: Klucel (hydroxypropylcellulose) (HPC).
The mark [2] stands for this setting: dose: 100.0 mg/kg/injection, schedule: Q01DX009 (ip), vehicle: Klucel (hydroxypropylcellulose) (HPC).
[3] abbreviates: dose: 200.0 mg/kg/injection, schedule: Q01DX009 (ip), vehicle: Klucel (hydroxypropylcellulose) (HPC).
Where [4] appears, read: dose: 50.0 mg/kg/injection, schedule: Q01DX005 (ip), vehicle: saline.
The mark [5] stands for this setting: dose: 100.0 mg/kg/injection, schedule: Q01DX005 (ip), vehicle: saline.
[6] abbreviates: dose: 50.0 mg/kg/injection, schedule: Q01DX005 (ip), vehicle: Klucel (hydroxypropylcellulose) (HPC).
Where [7] appears, read: dose: 100.0 mg/kg/injection, schedule: Q01DX005 (ip), vehicle: Klucel (hydroxypropylcellulose) (HPC).
Setting [8] is: dose: 200.0 mg/kg/injection, schedule: Q01DX005 (ip), vehicle: Klucel (hydroxypropylcellulose) (HPC).
The mark [9] stands for this setting: dose: 60.0 mg/kg/injection, schedule: Q01DX005 (ip), vehicle: saline with Tween-80.
[10] abbreviates: dose: 120.0 mg/kg/injection, schedule: Q01DX005 (ip), vehicle: saline with Tween-80.
Where [11] appears, read: dose: 240.0 mg/kg/injection, schedule: Q01DX005 (ip), vehicle: saline with Tween-80.
The mark [12] stands for this setting: dose: 200.0 mg/kg/injection, schedule: Q01DX005 (ip), vehicle: saline.

Regarding `Cc1noc2nc(-c3ccccc3)cc(N3CCN(C)CC3)c12`, the T/C is, setting by setting: (dose: 12.5 mg/kg/injection, schedule: Q01DX005 (ip), vehicle: other) 107 % of control; (dose: 25.0 mg/kg/injection, schedule: Q01DX005 (ip), vehicle: other) 97 % of control; (dose: 50.0 mg/kg/injection, schedule: Q01DX005 (ip), vehicle: other) 97 % of control; (dose: 100.0 mg/kg/injection, schedule: Q01DX005 (ip), vehicle: other) 101 % of control; (dose: 200.0 mg/kg/injection, schedule: Q01DX005 (ip), vehicle: other) 104 % of control.
On to `Cc1nc(NC(=O)C(C)(C)C)sc1[N+](=O)[O-]`, for which the T/C is 101 % of control (dose: 50.0 mg/kg/injection, schedule: Q01DX009 (ip), vehicle: saline with Tween-80); 92 % of control (dose: 100.0 mg/kg/injection, schedule: Q01DX009 (ip), vehicle: saline with Tween-80); 94 % of control (dose: 200.0 mg/kg/injection, schedule: Q01DX009 (ip), vehicle: saline with Tween-80).
For the compound `COc1ccc(NC(=S)Nc2ccc(S(=O)(=O)N3CCCCC3)cc2)cc1`, the T/C runs as follows: under setting [1], 94 % of control; under setting [2], 94 % of control and 95 % of control; under setting [3], 98 % of control.
Consider `O=c1c2c([nH]c(=S)n1-c1ccccc1)NCCC2`, for which the T/C (dose: 50.0 mg/kg/injection, schedule: Q04DX003 (ip), vehicle: Klucel (hydroxypropylcellulose) (HPC)) was 101 % of control; the T/C (dose: 100.0 mg/kg/injection, schedule: Q04DX003 (ip), vehicle: Klucel (hydroxypropylcellulose) (HPC)) is 101 % of control; the T/C (dose: 200.0 mg/kg/injection, schedule: Q04DX003 (ip), vehicle: Klucel (hydroxypropylcellulose) (HPC)) is 111 % of control.
For `CCC(=O)N/C(N)=N\C(N)=O`, the T/C under setting [4] was 95 % of control and the T/C under setting [5] is 98 % of control.
With `CN(C)Cc1nsc(N(C)C)n1`, the T/C runs as follows: under setting [6], 100 % of control; under setting [7], 97 % of control; under setting [8], 93 % of control.
`COc1ccc2c(c1)CCC1OC(c3cccnc3)OC21` (centres undefined): the T/C by setting is: under setting [9], 99 % of control; under setting [10], 99 % of control; under setting [11], 97 % of control.
Consider `COc1cc2c(c(OC)c1OC)-c1ccc(SC)c(=O)cc1[C@@H](NC(=O)CCl)CC2`, for which the T/C reads like this: (dose: 0.03 mg/kg/injection, schedule: Q01DX009 (ip), vehicle: water) 124 % of control; (dose: 0.4 mg/kg/injection, schedule: Q01DX009 (ip), vehicle: water) 155 % of control.
As for `S=P1(CNc2ccccc2)CN(c2ccccc2)CN(c2ccccc2)C1`, the T/C was 100 % of control (dose: 50.0 mg/kg/injection, schedule: Q01DX001 (ip), vehicle: saline with Tween-80); 95 % of control (dose: 100.0 mg/kg/injection, schedule: Q01DX001 (ip), vehicle: saline with Tween-80); 100 % of control (dose: 200.0 mg/kg/injection, schedule: Q01DX001 (ip), vehicle: saline with Tween-80).
Turning to `CCC(C)C(NC(=O)C(Cc1c[nH]c2ccccc12)NC(=O)OC(C)(C)C)C(=O)NN` (stereo not drawn) (Boc-Trp-Ile-NHNH2; configuration not given here), the T/C (dose: 12.5 mg/kg/injection, schedule: Q01DX009 (ip), vehicle: other) is 97 % of control; the T/C (dose: 25.0 mg/kg/injection, schedule: Q01DX009 (ip), vehicle: other) is 91 % of control; the T/C (dose: 50.0 mg/kg/injection, schedule: Q01DX009 (ip), vehicle: other) was 87 % of control; the T/C (dose: 100.0 mg/kg/injection, schedule: Q01DX009 (ip), vehicle: other) is 94 % of control; the T/C (dose: 200.0 mg/kg/injection, schedule: Q01DX009 (ip), vehicle: other) was 100 % of control.
Consider `Cc1cc(N/N=C(\c2ccccc2)c2ccccn2)nc2ccccc12`, for which the T/C is 104 % of control (dose: 50.0 mg/kg/injection, schedule: Q01DX005 (ip), vehicle: saline with Tween-80); 103 % of control (dose: 100.0 mg/kg/injection, schedule: Q01DX005 (ip), vehicle: saline with Tween-80); 94 % of control (dose: 200.0 mg/kg/injection, schedule: Q01DX005 (ip), vehicle: saline with Tween-80).
Turning to `COc1cccc2c(NCCCCCCCCNc3c4ccc([N+](=O)[O-])cc4nc4c(OC)cccc34)c3ccc([N+](=O)[O-])cc3nc12`, the T/C was 157 % of control (dose: 2.5 mg/kg/injection, schedule: Q01DX009 (ip), vehicle: other); 152 % of control (dose: 5.0 mg/kg/injection, schedule: Q01DX009 (ip), vehicle: other); 158 % of control and 172 % of control (dose: 10.0 mg/kg/injection, schedule: Q01DX009 (ip), vehicle: other); 170 % of control (dose: 20.0 mg/kg/injection, schedule: Q01DX009 (ip), vehicle: other); 166 % of control (dose: 40.0 mg/kg/injection, schedule: Q01DX009 (ip), vehicle: other).
As to `N#C/C(C(N)=O)=C1/C(=O)Nc2ccccc21`, the T/C under setting [6] is 103 % of control, the T/C under setting [7] is 98 % of control and the T/C under setting [8] is 94 % of control.
For the compound `CN(C(=S=O)c1ccc([N+](=O)[O-])cc1)c1ccccc1`, the T/C (dose: 50.0 mg/kg/injection, schedule: Q01DX009 (ip), vehicle: saline) was 100 % of control; the T/C (dose: 100.0 mg/kg/injection, schedule: Q01DX009 (ip), vehicle: saline) was 97 % of control; the T/C (dose: 200.0 mg/kg/injection, schedule: Q01DX009 (ip), vehicle: saline) is 104 % of control.
On to `CCCCCCC(=O)C(=O)c1ccc(O)c(C)c1O`, for which the T/C by setting is: under setting [1], 89 % of control; under setting [2], 93 % of control; under setting [3], 93 % of control.
On to `CC(NNC(=S)N1CCC(c2ccccc2)CC1)c1cc2ccccc2cn1` (centres undefined), for which the T/C by setting is: (dose: 6.25 mg/kg/injection, schedule: Q01DX005 (ip), vehicle: saline with Tween-80) 97 % of control; (dose: 12.5 mg/kg/injection, schedule: Q01DX005 (ip), vehicle: saline with Tween-80) 103 % of control; (dose: 25.0 mg/kg/injection, schedule: Q01DX005 (ip), vehicle: saline with Tween-80) 111 % of control.
As for `CC(C)(CC#N)c1cc(CC(C)(C)c2cc(CC(C)(C)c3cc(CC(C)(C)C4(C)OCCO4)no3)no2)no1`, the T/C is, setting by setting: (dose: 30.0 mg/kg/injection, schedule: Q01DX005 (ip), vehicle: saline with Tween-80) 87 % of control; under setting [9], 90 % of control and 91 % of control; under setting [10], 86 % of control; under setting [11], 87 % of control.
On to `O=[N+]([O-])c1ccc(N/N=C\c2c(Cl)[nH]c3ccccc23)cc1`, for which the T/C by setting is: (dose: 100.0 mg/kg/injection, schedule: Q04DX002 (ip), vehicle: saline + alcohol) 86 % of control; (dose: 200.0 mg/kg/injection, schedule: Q04DX002 (ip), vehicle: saline + alcohol) 98 % of control; (dose: 400.0 mg/kg/injection, schedule: Q04DX002 (ip), vehicle: saline + alcohol) 104 % of control.
Consider `O=C(N/N=C/c1ccccc1O)c1cc2ccccc2cc1O`, for which the T/C is, setting by setting: (dose: 7.5 mg/kg/injection, schedule: Q01DX005 (ip), vehicle: saline with Tween-80) 92 % of control; (dose: 15.0 mg/kg/injection, schedule: Q01DX005 (ip), vehicle: saline with Tween-80) 88 % of control.
For the compound `CC(=O)c1cc(C(O)C(O)C(O)C(O)CO)[nH]c1C` (centres undefined), the T/C under setting [4] was 108 % of control, the T/C under setting [5] is 108 % of control and the T/C under setting [12] was 110 % of control.
As for `CC(CO)CC(C)(C)C` (centres undefined), the T/C is, setting by setting: (dose: 25.0 mg/kg/injection, schedule: Q01DX005 (ip), vehicle: saline) 101 % of control; under setting [4], 108 % of control; under setting [5], 104 % of control; under setting [12], 109 % of control.
Regarding `O=C1OCCSCCOCCSCCOC(=O)c2cncc1c2`, the T/C runs as follows: (dose: 100.0 mg/kg/injection, schedule: Q01DX001 (ip), vehicle: Klucel (hydroxypropylcellulose) (HPC)) 99 % of control; (dose: 200.0 mg/kg/injection, schedule: Q01DX001 (ip), vehicle: Klucel (hydroxypropylcellulose) (HPC)) 113 % of control; (dose: 400.0 mg/kg/injection, schedule: Q01DX001 (ip), vehicle: Klucel (hydroxypropylcellulose) (HPC)) 109 % of control.
Turning to `C[CH2][Ge]([c]1ccccc1)[c]1ccccc1.C[CH2][Ge]([c]1ccccc1)[c]1ccccc1.c1cc[c]([Ge]([O][Ge]([c]2ccccc2)[c]2ccccc2)[c]2ccccc2)cc1`, the T/C is 91 % of control under setting [4], 91 % of control under setting [5] and 91 % of control under setting [12].
